“Also recorded” adds a separate entry of the source.
Experiments:
SIRT1 = target: T1, SIRT1 (Homo sapiens, UniProt Q96EB6); conditions: at 10-fold higher levels than the SIRT2 IC50; cited from earlier work
T1 sequence (Q96EB6 1-747): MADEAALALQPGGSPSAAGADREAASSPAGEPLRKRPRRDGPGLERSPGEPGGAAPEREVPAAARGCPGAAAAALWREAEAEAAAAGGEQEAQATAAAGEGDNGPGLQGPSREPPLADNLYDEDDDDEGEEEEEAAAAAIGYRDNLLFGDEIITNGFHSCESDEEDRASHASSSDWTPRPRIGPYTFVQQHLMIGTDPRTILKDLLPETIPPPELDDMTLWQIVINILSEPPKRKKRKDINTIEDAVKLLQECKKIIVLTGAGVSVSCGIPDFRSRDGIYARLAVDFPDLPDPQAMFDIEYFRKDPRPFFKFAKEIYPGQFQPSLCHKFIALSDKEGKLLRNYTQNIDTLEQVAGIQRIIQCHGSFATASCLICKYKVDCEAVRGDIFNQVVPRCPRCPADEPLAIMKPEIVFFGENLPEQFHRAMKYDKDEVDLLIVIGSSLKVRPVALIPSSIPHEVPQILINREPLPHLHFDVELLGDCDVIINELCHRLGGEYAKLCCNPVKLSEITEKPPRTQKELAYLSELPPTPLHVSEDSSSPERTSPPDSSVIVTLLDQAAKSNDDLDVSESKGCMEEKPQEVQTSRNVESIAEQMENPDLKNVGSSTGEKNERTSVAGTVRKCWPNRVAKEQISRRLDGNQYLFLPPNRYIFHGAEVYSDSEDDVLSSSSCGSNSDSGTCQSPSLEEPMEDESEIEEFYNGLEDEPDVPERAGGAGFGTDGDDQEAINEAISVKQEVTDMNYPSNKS

[1] = target: T2, Sirt2 deacetylase activity (Homo sapiens, UniProt Q8IXJ6); test: Western blot of acetylated α-tubulin in human CD3+ enriched T cells; type: cell-based; conditions: 48 hr
T2 construct: endogenous in cells; host or cells: human CD3+ T cells enriched from PBMC of healthy donors
T2 sequence (Q8IXJ6 1-389): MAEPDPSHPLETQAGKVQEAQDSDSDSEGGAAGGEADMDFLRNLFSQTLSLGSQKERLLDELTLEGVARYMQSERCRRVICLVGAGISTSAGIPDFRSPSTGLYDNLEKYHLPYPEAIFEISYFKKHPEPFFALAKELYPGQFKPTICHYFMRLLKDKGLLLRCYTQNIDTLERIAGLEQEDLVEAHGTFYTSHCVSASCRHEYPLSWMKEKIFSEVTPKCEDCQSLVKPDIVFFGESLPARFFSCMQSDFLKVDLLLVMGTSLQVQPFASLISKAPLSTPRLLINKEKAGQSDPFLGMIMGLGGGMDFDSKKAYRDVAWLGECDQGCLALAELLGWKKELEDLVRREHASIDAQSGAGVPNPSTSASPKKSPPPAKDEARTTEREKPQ
Experimental: Human peripheral blood mononuclear cells (PBMC) were obtained from healthy donors by density gradient centrifugation using Ficoll-Paque™ PLUS Media (GE Healthcare). CD3^+ lymphocytes were negatively enriched using human Pan T cell isolation Kit™ (Miltenyi Biotec).
Whole cell lysates were prepared using lysis buffer (Pierce RIPA buffer, ThermoFisher Scientific) supplemented with cOmplete™ Protease Inhibitor Cocktail and PhosSTOP Phosphatase Inhibitor (Roche Applied Science).
Cell lysates (20 ug) or IP samples were loaded onto 10% SDS-PAGE and separated by electrophoresis followed by semi-dry transfer into polyvinylidene fluoride membranes (Immun-Blot PVDF membrane, Bio-Rad) using Trans-Blot Turbo transfer system (Bio-Rad). After transfer, the membranes were blocked at room temperature with Tris-buffered saline (TBS) containing 0.05% Tween-20 (TBST) and 5% (w/v) milk for 1 h and then incubated overnight at 4° C. with a specific primary antibody (indicated below). […] After washing 3 times with TBST, bound antibodies were detected by chemiluminescence using the Pierce™ ECL Western Blotting Substrate and the Super Signal West Femto Maximum Sensitivity Substrate kits (ThermoFisher Scientific). […]

N#C/C(=C/c1ccc(-c2cc(Cl)ccc2Cl)o1)C(=O)Nc1cccc2ncccc12 [AGK2]
effect on SIRT1 (SIRT1): minimally affects | capacity to block Sirt2 deacetylase activity, monitored by acetylated α-tubulin levels [1]: confirmed; also recorded: validated

— US20220017863A1, “SIRT2-ABLATED CHIMERIC T CELLS” (H. Lee Moffitt Cancer Center and Research Institute, Inc., priority 2019, published 2022)
